Test results from ChEMBL document CHEMBL1150998, “Enzymatic resolution of AMPA by use of -chymotrypsin” (Bioorg Med Chem Lett, 1993).

Experiments:
[1] = organism: Rattus norvegicus; assay: Tested in vitro for the dose response curve in rat cortical wedge preparation
[2] = target: Glutamate receptor ionotropic, AMPA (Rattus norvegicus, UniProt P19490+P19491+P19492+P19493); assay: Tested for the inhibitory activity of against Ionotropic glutamate receptor AMPA by [3H]- AMPA binding assay; type: protein-complex assay

| IC50 [2] [µM] | SMILES | EC50 [1] [µM] |
| --- | --- | --- |
| – | Cc1onc(O)c1CC(N)C(=O)O (single isomer, unassigned; form 2) | 580 |
| > 100 | CCOC(=O)C(N)Cc1c(OCC)noc1C (stereo not drawn) | – |
| – | Cc1onc(O)c1CC(N)C(=O)O (single isomer, unassigned; form 1) | 3.8 |
